US6737383B1, “Herbicidal oxadiazolidines” (priority 1999, dated 2004)

Legend:
bedstraw = experiment: Test B pre/postemergence bedstraw; format: in vivo, Galium aparine; conditions: Preemergence
In short: (§1)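 Test chemicals in a non-phytotoxic solvent mixture with surfactant were sprayed preemergence onto planted seeds and postemergence onto plants 2 to 18 cm tall (1- to 4-leaf stage). After twelve to sixteen days in a greenhouse, injury was visually rated against untreated controls from 0 (no effect) to 10 (complete control).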

blackgrass = experiment: Test B pre/postemergence blackgrass; format: in vivo, Alopecurus myosuroides
In short: as §1

surinam grass = experiment: Test B pre/postemergence surinam grass; format: in vivo, Brachiaria decumbens
In short: as §1

cocklebur = experiment: Test B pre/postemergence cocklebur; format: in vivo, Xanthium strumarium
In short: as §1

corn = experiment: Test B pre/postemergence corn; format: in vivo, Zea mays; conditions: for Corn plant response rating: scale of 0 to 10 where 0 is no effect and 10 is complete control
In short: as §1

crabgrass = experiment: Test B pre/postemergence crabgrass; format: in vivo, Digitaria sanguinalis; conditions: for Crabgrass plant response rating: scale of 0 to 10 where 0 is no effect and 10 is complete control
In short: as §1

rape = experiment: Test B pre/postemergence rape; format: in vivo, Brassica napus; conditions: for Rape plant response rating: scale of 0 to 10 where 0 is no effect and 10 is complete control
In short: as §1

soybean = experiment: Test B pre/postemergence soybean; format: in vivo, Glycine max; conditions: for Soybean plant response rating: scale of 0 to 10 where 0 is no effect and 10 is complete control
In short: as §1

sugar beet = experiment: Test B pre/postemergence sugar beet; format: in vivo, Beta vulgaris; conditions: for Sugarbeets plant response rating: scale of 0 to 10 where 0 is no effect and 10 is complete control
In short: as §1

velvetleaf = experiment: Test B pre/postemergence velvetleaf; format: in vivo, Abutilon theophrasti; conditions: for Velvetleaf plant response rating: scale of 0 to 10 where 0 is no effect and 10 is complete control
In short: as §1

wheat = experiment: Test B pre/postemergence wheat; format: in vivo, Triticum aestivum; conditions: for Wheat plant response rating: scale of 0 to 10 where 0 is no effect and 10 is complete control
In short: as §1

wild oat = experiment: Test B pre/postemergence wild oat; format: in vivo, Avena fatua; conditions: for Wild oats plant response rating: scale of 0 to 10 where 0 is no effect and 10 is complete control
In short: as §1

purple nutsedge = experiment: Test B pre/postemergence purple nutsedge; format: in vivo, Cyperus rotundus; conditions: for Nutsedge plant response rating: scale of 0 to 10 where 0 is no effect and 10 is complete control
In short: as §1

rice = experiment: Test B flood test rice; format: in vivo, Oryza sativa; conditions: Pre-emergence
In short: (§2)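 Flood test on plants grown to the 2-leaf stage; treated plants kept in greenhouse twelve to sixteen days, then visually rated against controls on a 0 (no effect) to 10 (complete control) scale.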

smallflower flatsedge = experiment: Test B flood test smallflower flatsedge; format: in vivo, Cyperus difformis; conditions: Pre-emergence
In short: as §2

duck salad = experiment: Test B flood test duck salad; format: in vivo, Heteranthera limosa; conditions: Pre-emergence
In short: as §2

bamyardgrass = experiment: Test B flood test barnyardgrass; format: in vivo, Echinochloa crus-galli; conditions: Pre-emergence
In short: as §2

[1] = Postemergence, Rate 125 g/ha, scale 0 to 10, 0 is no effect, 10 is complete control
[2] = Preemergence, Rate 62 g/ha, scale 0 to 10 (0 no effect, 10 complete control)
[3] = Preemergence, Rate 250 g/ha, scale of 0 to 10 where 0 is no effect and 10 is complete control
[4] = Preemergence, Rate 500 g/ha, scale of 0 to 10 where 0 is no effect and 10 is complete control
[5] = Rate 62 g/ha, Postemergence, scale of 0 to 10 where 0 is no effect and 10 is complete control
[6] = Rate 250 g/ha, Postemergence, scale of 0 to 10 where 0 is no effect and 10 is complete control
[7] = Rate 500 g/ha, Postemergence, scale 0 to 10, 0 no effect, 10 complete control
[8] = Rate 62 g/ha, flood test species, visual evaluation after twelve to sixteen days
[9] = Rate 125 g/ha, flood test species, scale 0 to 10 where 0 is no effect and 10 is complete control
[10] = Rate 250 g/ha, flood-test species, scale 0 to 10, 0 is no effect, 10 is complete control
[11] = Rate 500 g/ha, flood test species, scale 0 to 10 (0 no effect, 10 complete control)

For CCC(CC)n1c(=O)on(C(=O)N(c2ccc(F)cc2F)C(C)C)c1=O [Compound 353], the “Plant response rating, Bedstraw” value (bedstraw; Rate 62 g/ha, scale 0 to 10 (0 no effect, 10 complete control)) was 0, the “Bedstraw plant response rating (0 to 10 scale)” value (bedstraw; Rate 125 g/ha) was 0 and the “Bedstraw plant response rating” value (bedstraw; Rate 500 g/ha, scale of 0 to 10 where 0 is no effect and 10 is complete control) was 3. The “Plant response rating, Blackgrass” value (blackgrass; [1]) was 4, the “Plant response rating, Blackgrass” value (blackgrass; [2]) was 2 and the “Blackgrass plant response rating” value (blackgrass; [3]) was 7. For the same compound, the “Blackgrass plant response rating” value (blackgrass; [4]) was 8, the “Blackgrass plant response rating” value (blackgrass; [5]) was 0 and the “Plant response rating, Blackgrass” value (blackgrass; [6]) was 4. The “Plant response rating, Blackgrass” value (blackgrass; [7]) was 9, the “Plant response rating, B. signalgrass” value (surinam grass; [1]) was 0 and the “Plant response rating, B. signalgrass” value (surinam grass; [2]) was 0. For the same compound, the “B. signalgrass plant response rating (0 to 10 scale, 0 is no effect, 10 is complete control)” value (surinam grass; Preemergence, Rate 125 g/ha) was 2, the “B. signalgrass plant response rating” value (surinam grass; [3]) was 5 and the “B. signalgrass plant response rating” value (surinam grass; [4]) was 5. For the same compound, the “B. signalgrass plant response rating” value (surinam grass; [5]) was 0, the “Plant response rating, B. signalgrass” value (surinam grass; [6]) was 0 and the “Plant response rating, B. signalgrass” value (surinam grass; [7]) was 0. The “Plant response rating, Cocklebur” value (cocklebur; [1]) was 0, the “Plant response rating, Cocklebur” value (cocklebur; [2]) was 0 and the “Cocklebur plant response rating (0 to 10 scale)” value (cocklebur; Preemergence, Rate 125 g/ha) was 0. For the same compound, the “Cocklebur plant response rating” value (cocklebur; [5]) was 0, the “Plant response rating, Cocklebur” value (cocklebur; [7]) was 1 and the “Plant response rating, Corn” value (corn; [1]) was 0. The “Plant response rating, Corn” value (corn; [2]) was 0, the “Corn plant response rating (0 to 10 scale)” value (corn; Preemergence, Rate 125 g/ha) was 3 and the “Corn plant response rating” value (corn; Preemergence, Rate 250 g/ha) was 3. For the same compound, the “Corn plant response rating” value (corn; Preemergence, Rate 500 g/ha) was 7, the “Corn plant response rating” value (corn; Rate 62 g/ha, Postemergence) was 0 and the “Plant response rating, Corn” value (corn; [7]) was 0. For the same compound, the “Plant response rating, Crabgrass” value (crabgrass; [1]) was 0, the “Plant response rating, Crabgrass” value (crabgrass; [2]) was 7 and the “Crabgrass plant response rating (0 to 10 scale)” value (crabgrass; Preemergence, Rate 125 g/ha) was 9. The “Crabgrass plant response rating” value (crabgrass; Preemergence, Rate 250 g/ha) was 10, the “Crabgrass plant response rating” value (crabgrass; Preemergence, Rate 500 g/ha) was 10 and the “Crabgrass plant response rating” value (crabgrass; Rate 62 g/ha, Postemergence) was 0. The “Plant response rating, Crabgrass” value (crabgrass; [7]) was 3, the “Plant response rating, Rape” value (rape; [1]) was 2 and the “Plant response rating, Rape” value (rape; [2]) was 0. For the same compound, the “Rape plant response rating (0 to 10 scale)” value (rape; Preemergence, Rate 125 g/ha) was 0, the “Rape plant response rating” value (rape; Preemergence, Rate 250 g/ha) was 1 and the “Rape plant response rating” value (rape; Preemergence, Rate 500 g/ha) was 5. The “Rape plant response rating” value (rape; Rate 62 g/ha, Postemergence) was 2, the “Plant response rating, Rape” value (rape; [7]) was 4 and the “Plant response rating, Soybean” value (soybean; [1]) was 4. For the same compound, the “Plant response rating, Soybean” value (soybean; [2]) was 0, the “Soybean plant response rating (0 to 10 scale)” value (soybean; Preemergence, Rate 125 g/ha) was 0 and the “Soybean plant response rating” value (soybean; Preemergence, Rate 250 g/ha) was 0. For the same compound, the “Soybean plant response rating” value (soybean; Preemergence, Rate 500 g/ha) was 0, the “Soybean plant response rating” value (soybean; Rate 62 g/ha, Postemergence) was 4 and the “Plant response rating, Soybean” value (soybean; [7]) was 6. For the same compound, the “Plant response rating, Sugarbeets” value (sugar beet; [1]) was 0, the “Plant response rating, Sugarbeets” value (sugar beet; [2]) was 0 and the “Sugarbeets plant response rating (0 to 10 scale)” value (sugar beet; Preemergence, Rate 125 g/ha) was 2. The “Sugarbeets plant response rating” value (sugar beet; Preemergence, Rate 250 g/ha) was 2, the “Sugarbeets plant response rating” value (sugar beet; Preemergence, Rate 500 g/ha) was 4 and the “Sugarbeets plant response rating” value (sugar beet; Rate 62 g/ha, Postemergence) was 0. For the same compound, the “Plant response rating, Sugarbeets” value (sugar beet; [7]) was 6, the “Plant response rating, Velvetleaf” value (velvetleaf; [1]) was 0 and the “Plant response rating, Velvetleaf” value (velvetleaf; [2]) was 0. The “Velvetleaf plant response rating (0 to 10 scale)” value (velvetleaf; Preemergence, Rate 125 g/ha) was 1, the “Velvetleaf plant response rating” value (velvetleaf; Preemergence, Rate 250 g/ha) was 4 and the “Velvetleaf plant response rating” value (velvetleaf; Preemergence, Rate 500 g/ha) was 6. For the same compound, the “Velvetleaf plant response rating” value (velvetleaf; Rate 62 g/ha, Postemergence) was 0, the “Plant response rating, Velvetleaf” value (velvetleaf; [7]) was 2 and the “Plant response rating, Wheat” value (wheat; [1]) was 0. For the same compound, the “Plant response rating, Wheat” value (wheat; [2]) was 0, the “Wheat plant response rating (0 to 10 scale)” value (wheat; Preemergence, Rate 125 g/ha) was 0 and the “Wheat plant response rating” value (wheat; Preemergence, Rate 250 g/ha) was 2. For the same compound, the “Wheat plant response rating” value (wheat; Preemergence, Rate 500 g/ha) was 2, the “Wheat plant response rating” value (wheat; Rate 62 g/ha, Postemergence) was 0 and the “Plant response rating, Wheat” value (wheat; [7]) was 0. For the same compound, the “Plant response rating, Wild oats” value (wild oat; [1]) was 0, the “Plant response rating, Wild oats” value (wild oat; [2]) was 0 and the “Wild oats plant response rating (0 to 10 scale)” value (wild oat; Preemergence, Rate 125 g/ha) was 1. The “Wild oats plant response rating” value (wild oat; Preemergence, Rate 250 g/ha) was 4, the “Wild oats plant response rating” value (wild oat; Preemergence, Rate 500 g/ha) was 6 and the “Wild oats plant response rating” value (wild oat; Rate 62 g/ha, Postemergence) was 0. For the same compound, the “Plant response rating, Wild oats” value (wild oat; [7]) was 2, the “Plant response rating, Nutsedge” value (purple nutsedge; [1]) was 0 and the “Plant response rating, Nutsedge” value (purple nutsedge; [2]) was 0. The “Nutsedge plant response rating (0 to 10 scale)” value (purple nutsedge; Preemergence, Rate 125 g/ha) was 0, the “Nutsedge plant response rating” value (purple nutsedge; Preemergence, Rate 250 g/ha) was 0 and the “Nutsedge plant response rating” value (purple nutsedge; Preemergence, Rate 500 g/ha) was 0. The “Nutsedge plant response rating” value (purple nutsedge; Rate 62 g/ha, Postemergence) was 0, the “Plant response rating, Nutsedge” value (purple nutsedge; [7]) was 0 and the “Plant response rating, Rice (0 to 10 scale, 0 is no effect, 10 is complete control)” value (rice; [8]) was 0. The “Rice plant response rating” value (rice; [9]) was 0, the “Rice plant response rating” value (rice; [10]) was 0 and the “Rice plant response rating” value (rice; [11]) was 4. The “Plant response rating, S. Flatsedge (0 to 10 scale, 0 is no effect, 10 is complete control)” value (smallflower flatsedge; [8]) was 0, the “S. Flatsedge plant response rating” value (smallflower flatsedge; [9]) was 2 and the “S. Flatsedge plant response rating” value (smallflower flatsedge; [10]) was 2. For the same compound, the “S. Flatsedge plant response rating” value (smallflower flatsedge; [11]) was 7, the “Plant response rating, Ducksalad (0 to 10 scale, 0 is no effect, 10 is complete control)” value (duck salad; [8]) was 0 and the “Ducksalad plant response rating” value (duck salad; [9]) was 0. The “Ducksalad plant response rating” value (duck salad; [10]) was 0, the “Ducksalad plant response rating” value (duck salad; [11]) was 0 and the “Plant response rating, Barnyardgrass (0 to 10 scale, 0 is no effect, 10 is complete control)” value (bamyardgrass; [8]) was 0. The “Barnyardgrass plant response rating” value (bamyardgrass; [9]) was 0, the “Barnyardgrass plant response rating” value (bamyardgrass; [10]) was 0 and the “Barnyardgrass plant response rating” value (bamyardgrass; [11]) was 9.
